Experimental data from ChEMBL document CHEMBL4417633, “Inhibitory polypeptides specific to WNT inhibitors” (2017).
Calls of active or inactive are those of the source. No cut-off for these calls is given here. Where a SMILES comes first, the peptide text is derived from it.

Columns and labels:
[1] = molecular target: T1, Dickkopf WNT-signaling pathway inhibitor 1 (Rattus norvegicus) (UniProt A6I0Z0); assay: Inhibition of biotin-labeled rat recombinant DKK1 assessed as reduction in DKK1 interaction with LRP-6/Fc incubated overnight by chemiluminescence based Alpha-screen assay
T1 sequence (whole entry): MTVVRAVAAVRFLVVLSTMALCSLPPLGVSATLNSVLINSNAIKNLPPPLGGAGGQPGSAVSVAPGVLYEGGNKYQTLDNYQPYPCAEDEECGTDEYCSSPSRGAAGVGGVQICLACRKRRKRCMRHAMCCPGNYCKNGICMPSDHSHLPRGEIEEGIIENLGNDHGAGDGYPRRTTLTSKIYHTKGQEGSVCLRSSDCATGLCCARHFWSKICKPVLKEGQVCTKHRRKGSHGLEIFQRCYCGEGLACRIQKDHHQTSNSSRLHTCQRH

[2] = molecular target: T2, Dickkopf-related protein 1 (Homo sapiens, UniProt O94907); assay: Inhibition of human DKK1 in MC3T3E1/TetON-Wnt1/STF-Luc#5 cells assessed as DKK1 neutralizing activity by Wnt1-induced TCF/LEF luciferase reporter gene assay
T2 sequence (O94907 whole entry): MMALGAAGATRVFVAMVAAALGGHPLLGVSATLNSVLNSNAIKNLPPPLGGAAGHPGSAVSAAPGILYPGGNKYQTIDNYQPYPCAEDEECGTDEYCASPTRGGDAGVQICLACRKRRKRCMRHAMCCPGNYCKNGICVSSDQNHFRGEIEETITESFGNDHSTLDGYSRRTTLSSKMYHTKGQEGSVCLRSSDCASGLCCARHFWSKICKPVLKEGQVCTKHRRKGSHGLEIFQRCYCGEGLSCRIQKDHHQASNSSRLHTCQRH

[3] = molecular target: T3, Dickkopf-related protein 1 (Homo sapiens) (UniProt O94907); assay: Inhibition of biotin-labeled human recombinant DKK1 assessed as reduction in DKK1 interaction with LRP-6/Fc incubated overnight by chemiluminescence based Alpha-screen assay
T3 sequence (whole entry): T2 sequence (O94907 whole entry)

Row | Compound | inhibition [1] | IC50 [2] | inhibition [3]
1 | CSCC[C@H](NC(=O)[C@@H]1CCCN1C(=O)[C@H](Cc1ccc(O)cc1)NC(=O)[C@H](CS)NC(=O)[C@H](Cc1cnc[nH]1)NC(=O)[C@@H]1CCCN1C(=O)[C@H](Cc1cnc[nH]1)NC(=O)[C@H](CC(N)=O)NC(=O)[C@H](CCCNC(=N)N)NC(=O)[C@H](CS)NC(=O)[C@H](CCCCN)NC(=O)[C@H](Cc1ccccc1)NC(=O)[C@H](Cc1ccc(O)cc1)NC(=O)[C@H](CO)NC(=O)[C@H](C)NC(=O)[C@@H]1CCCN1C(=O)[C@@H](N)CS)C(=O)N[C@@H](CCC(=O)O)C(=O)N[C@@H](Cc1c[nH]c2ccccc12)C(=O)N[C@@H](CCCNC(=N)N)C(=O)N[C@@H](CS)C(=O)N[C@@H](CC(=O)O)C(=O)NCC(=O)N[C@@H](Cc1ccccc1)C(=O)N[C@@H](C)C(=O)N[C@@H](CC(=O)O)C(=O)N[C@@H](CS)C(=O)N[C@H](C(=O)N[C@@H](CC(=O)O)C(=O)NCC(=O)N[C@@H](CO)C(=O)N[C@@H](CC(=O)O)C(=O)N[C@@H](CCC(=O)O)C(=O)N[C@@H](CC(C)C)C(=O)N[C@@H](CO)C(=O)N[C@@H](CS)C(=O)NCC(=O)NCC(=O)NCC(=O)NCC(=O)O)C(C)C (H-CPASYFKCRNHPHCYPMEWRCDGFADCVDGSDELSCGGGG-OH) | Active | 0.8 to 3 nM | Active
2 | CSCC[C@H](NC(=O)[C@@H]1CCCN1C(=O)[C@H](Cc1ccc(O)cc1)NC(=O)[C@H](CS)NC(=O)[C@H](Cc1cnc[nH]1)NC(=O)[C@@H]1CCCN1C(=O)[C@H](Cc1cnc[nH]1)NC(=O)[C@H](CC(N)=O)NC(=O)[C@H](CCCNC(=N)N)NC(=O)[C@H](CS)NC(=O)[C@H](CCCNC(=N)N)NC(=O)[C@H](Cc1ccccc1)NC(=O)[C@H](Cc1ccc(O)cc1)NC(=O)[C@H](CO)NC(=O)[C@H](C)NC(=O)[C@@H]1CCCN1C(=O)[C@@H](N)CS)C(=O)N[C@@H](CCC(=O)O)C(=O)N[C@@H](Cc1c[nH]c2ccccc12)C(=O)N[C@@H](CCCNC(=N)N)C(=O)N[C@@H](CS)C(=O)N[C@@H](CC(=O)O)C(=O)NCC(=O)N[C@@H](Cc1ccccc1)C(=O)N[C@@H](CCC(=O)O)C(=O)N[C@@H](CC(=O)O)C(=O)N[C@@H](CS)C(=O)N[C@H](C(=O)N[C@@H](CC(=O)O)C(=O)NCC(=O)N[C@@H](CO)C(=O)N[C@@H](CC(=O)O)C(=O)N[C@@H](CCC(=O)O)C(=O)N[C@@H](CC(C)C)C(=O)N[C@@H](CC(=O)O)C(=O)N[C@@H](CS)C(=O)NCC(=O)NCC(=O)NCC(=O)NCC(=O)O)C(C)C (H-CPASYFRCRNHPHCYPMEWRCDGFEDCVDGSDELDCGGGG-OH) | Active | 0.8 to 3 nM | Active
3 | CC[C@H](C)[C@H](NC(=O)[C@H](CS)NC(=O)[C@H](CC(=O)O)NC(=O)[C@@H]1CCCN1C(=O)[C@H](Cc1ccccc1)NC(=O)CNC(=O)[C@H](CC(=O)O)NC(=O)[C@H](CS)NC(=O)[C@H](CCCNC(=N)N)NC(=O)[C@H](Cc1c[nH]c2ccccc12)NC(=O)[C@H](CCC(=O)O)NC(=O)[C@H](CCSC)NC(=O)[C@@H]1CCCN1C(=O)[C@H](Cc1ccc(O)cc1)NC(=O)[C@H](CS)NC(=O)[C@H](Cc1cnc[nH]1)NC(=O)[C@@H]1CCCN1C(=O)[C@H](Cc1cnc[nH]1)NC(=O)[C@H](CCCCN)NC(=O)[C@H](CCCNC(=N)N)NC(=O)[C@H](CS)NC(=O)[C@H](CCC(N)=O)NC(=O)[C@H](Cc1ccccc1)NC(=O)[C@H](Cc1ccc(O)cc1)NC(=O)[C@H](CO)NC(=O)[C@H](C)NC(=O)[C@@H]1CCCN1C(=O)[C@@H](N)CS)C(=O)N[C@@H](CC(=O)O)C(=O)NCC(=O)N[C@@H](CO)C(=O)N[C@@H](CC(=O)O)C(=O)N[C@@H](CCC(=O)O)C(=O)N[C@@H](CCC(=O)O)C(=O)N[C@@H](CCCNC(=N)N)C(=O)N[C@@H](CS)C(=O)NCC(=O)NCC(=O)NCC(=O)NCC(=O)O (H-CPASYFQCRKHPHCYPMEWRCDGFPDCIDGSDEERCGGGG-OH) | Active | 0.8 to 3 nM | Active

Now from value to compound:

Row | inhibition [1] | IC50 [2] | inhibition [3] | Compound
4 | Active | 0.8 to 3 nM | Active | CC[C@H](C)[C@H](NC(=O)[C@H](CS)NC(=O)[C@H](CC(=O)O)NC(=O)[C@@H]1CCCN1C(=O)[C@H](Cc1ccccc1)NC(=O)CNC(=O)[C@H](CC(=O)O)NC(=O)[C@H](CS)NC(=O)[C@H](CCCNC(=N)N)NC(=O)[C@H](Cc1c[nH]c2ccccc12)NC(=O)[C@H](CCC(=O)O)NC(=O)[C@H](CCSC)NC(=O)[C@@H]1CCCN1C(=O)[C@H](Cc1ccc(O)cc1)NC(=O)[C@H](CS)NC(=O)[C@H](Cc1cnc[nH]1)NC(=O)[C@@H]1CCCN1C(=O)[C@H](Cc1cnc[nH]1)NC(=O)[C@H](Cc1c[nH]c2ccccc12)NC(=O)[C@H](CCCNC(=N)N)NC(=O)[C@H](CS)NC(=O)[C@H](CCC(N)=O)NC(=O)[C@H](Cc1ccccc1)NC(=O)[C@H](Cc1ccc(O)cc1)NC(=O)[C@H](CO)NC(=O)[C@H](C)NC(=O)[C@@H]1CCCN1C(=O)[C@@H](N)CS)C(=O)N[C@@H](CC(=O)O)C(=O)NCC(=O)N[C@@H](CO)C(=O)N[C@@H](CC(=O)O)C(=O)N[C@@H](CCC(=O)O)C(=O)N[C@@H](CCC(=O)O)C(=O)N[C@@H](CO)C(=O)N[C@@H](CS)C(=O)NCC(=O)NCC(=O)NCC(=O)NCC(=O)O (H-CPASYFQCRWHPHCYPMEWRCDGFPDCIDGSDEESCGGGG-OH)
5 | Active | 0.8 to 3 nM | Active | CC[C@H](C)[C@H](NC(=O)[C@H](CS)NC(=O)[C@H](CC(=O)O)NC(=O)[C@@H]1CCCN1C(=O)[C@H](Cc1ccccc1)NC(=O)CNC(=O)[C@H](CC(=O)O)NC(=O)[C@H](CS)NC(=O)[C@H](CCCNC(=N)N)NC(=O)[C@H](Cc1c[nH]c2ccccc12)NC(=O)[C@H](CCC(=O)O)NC(=O)[C@H](CCSC)NC(=O)[C@@H]1CCCN1C(=O)[C@H](Cc1ccc(O)cc1)NC(=O)[C@H](CS)NC(=O)[C@H](Cc1cnc[nH]1)NC(=O)[C@@H]1CCCN1C(=O)[C@H](CC(C)C)NC(=O)[C@H](CC(N)=O)NC(=O)CNC(=O)[C@H](CS)NC(=O)[C@H](CCC(N)=O)NC(=O)[C@H](Cc1ccccc1)NC(=O)[C@H](Cc1ccc(O)cc1)NC(=O)[C@H](CO)NC(=O)[C@H](C)NC(=O)[C@@H]1CCCN1C(=O)[C@@H](N)CS)C(=O)N[C@@H](CC(=O)O)C(=O)NCC(=O)N[C@@H](CO)C(=O)N[C@@H](CC(=O)O)C(=O)N[C@@H](CCC(=O)O)C(=O)N[C@@H](CCCCN)C(=O)NCC(=O)N[C@@H](CS)C(=O)NCC(=O)NCC(=O)NCC(=O)NCC(=O)O (H-CPASYFQCGNLPHCYPMEWRCDGFPDCIDGSDEKGCGGGG-OH)
6 | Active | 0.8 to 3 nM | Active | CSCC[C@H](NC(=O)[C@@H]1CCCN1C(=O)[C@H](Cc1ccc(O)cc1)NC(=O)[C@H](CS)NC(=O)[C@H](Cc1cnc[nH]1)NC(=O)[C@@H]1CCCN1C(=O)[C@H](Cc1cnc[nH]1)NC(=O)[C@H](CC(N)=O)NC(=O)[C@H](CCCNC(=N)N)NC(=O)[C@H](CS)NC(=O)[C@H](CCC(N)=O)NC(=O)[C@H](Cc1ccccc1)NC(=O)[C@H](Cc1ccc(O)cc1)NC(=O)[C@H](CO)NC(=O)[C@H](CCC(=O)O)NC(=O)[C@@H]1CCCN1C(=O)[C@@H](N)CS)C(=O)N[C@@H](CCC(=O)O)C(=O)N[C@@H](Cc1c[nH]c2ccccc12)C(=O)N[C@@H](CCCNC(=N)N)C(=O)N[C@@H](CS)C(=O)N[C@@H](CC(=O)O)C(=O)NCC(=O)N[C@@H](Cc1ccccc1)C(=O)N1CCC[C@H]1C(=O)N[C@@H](CC(=O)O)C(=O)N[C@@H](CS)C(=O)N[C@H](C(=O)N[C@@H](CC(=O)O)C(=O)NCC(=O)N[C@@H](CO)C(=O)N[C@@H](CC(=O)O)C(=O)N[C@@H](CCC(=O)O)C(=O)N[C@@H](CC(C)C)C(=O)N[C@@H](CC(=O)O)C(=O)N[C@@H](CS)C(=O)NCC(=O)NCC(=O)NCC(=O)NCC(=O)O)C(C)C (H-CPESYFQCRNHPHCYPMEWRCDGFPDCVDGSDELDCGGGG-OH)
7 | Active | 0.8 to 3 nM | Active | CC[C@H](C)[C@H](NC(=O)[C@H](CCC(=O)O)NC(=O)[C@H](CC(=O)O)NC(=O)[C@H](CO)NC(=O)[C@H](C)NC(=O)[C@H](CC(=O)O)NC(=O)[C@@H](NC(=O)[C@H](CS)NC(=O)[C@H](CC(=O)O)NC(=O)[C@@H]1CCCN1C(=O)[C@H](Cc1ccccc1)NC(=O)CNC(=O)[C@H](CC(=O)O)NC(=O)[C@H](CS)NC(=O)[C@H](CCCNC(=N)N)NC(=O)[C@H](Cc1c[nH]c2ccccc12)NC(=O)[C@H](CCC(=O)O)NC(=O)[C@H](CCSC)NC(=O)[C@@H]1CCCN1C(=O)[C@H](Cc1ccc(O)cc1)NC(=O)[C@H](CS)NC(=O)[C@H](Cc1cnc[nH]1)NC(=O)[C@@H]1CCCN1C(=O)[C@H](Cc1cnc[nH]1)NC(=O)[C@H](CC(N)=O)NC(=O)[C@H](CCCNC(=N)N)NC(=O)[C@H](CS)NC(=O)[C@H](CCC(N)=O)NC(=O)[C@H](Cc1ccccc1)NC(=O)[C@H](Cc1ccc(O)cc1)NC(=O)[C@H](CO)NC(=O)[C@@H](NC(=O)[C@@H]1CCCN1C(=O)[C@@H](N)CS)C(C)C)C(C)C)C(=O)NCC(=O)N[C@@H](CS)C(=O)NCC(=O)NCC(=O)NCC(=O)NCC(=O)O (H-CPVSYFQCRNHPHCYPMEWRCDGFPDCVDASDEIGCGGGG-OH)
